These compounds were tested against T1, human PRMT1 (Homo sapiens, UniProt Q99873) (assay: PRMT1 Biochemical Assay (3H-SAM Flashplate, peptide substrate)). Details: 30 min preincubation.
T1 construct: GST-tagged PRMT1; made in house; host or cells: High Five insect cells (baculovirus)
T1 sequence (Q99873 with tags, fused parts or gaps): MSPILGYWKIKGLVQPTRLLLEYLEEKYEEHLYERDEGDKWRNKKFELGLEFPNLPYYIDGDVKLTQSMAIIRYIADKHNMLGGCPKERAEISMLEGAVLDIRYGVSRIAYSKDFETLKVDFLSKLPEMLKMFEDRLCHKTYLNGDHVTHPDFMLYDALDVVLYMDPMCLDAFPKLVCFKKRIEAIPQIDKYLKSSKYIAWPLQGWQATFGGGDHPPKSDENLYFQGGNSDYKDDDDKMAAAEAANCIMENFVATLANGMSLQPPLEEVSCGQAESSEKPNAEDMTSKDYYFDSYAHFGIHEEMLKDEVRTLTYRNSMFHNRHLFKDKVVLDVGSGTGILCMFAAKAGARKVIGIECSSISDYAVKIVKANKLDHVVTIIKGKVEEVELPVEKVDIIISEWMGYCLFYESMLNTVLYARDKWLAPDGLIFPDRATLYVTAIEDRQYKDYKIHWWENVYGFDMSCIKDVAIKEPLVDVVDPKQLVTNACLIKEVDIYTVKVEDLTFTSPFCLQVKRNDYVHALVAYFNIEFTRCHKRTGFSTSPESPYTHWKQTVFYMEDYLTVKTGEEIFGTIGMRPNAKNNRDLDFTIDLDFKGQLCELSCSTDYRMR
From the text: Peptide representative of human histone H4 residues 36-50 was synthesized with an N-terminal linker-affinity tag motif and a C-terminal amide cap by 21st Century Biochemicals. The peptide was purified by high-performance liquid chromatography (HPLC) to greater than 95% purity and confirmed by liquid chromatography mass spectrometry (LC-MS). The sequence was Biot-Ahx-[…]-amide (SEQ ID NO.: 1).
Full-length human PRMT1 isoform 1 (NM_001536.5) transcript clone was amplified from an HEK 293 cDNA library, incorporating flanking 5′ sequence encoding a FLAG tag ([…]) (SEQ ID NO:2) fused directly to Met 1 of PRMT1. The amplified gene was subcloned into pFastBacI (Life Technologies) modified to encode an N-terminal GST tag and a TEV cleavage sequence
GST-tagged PRMT1 was eluted with 50 mM Tris, 2 mM glutathione, pH 7.8, dialysed in buffer A and concentrated to 1 mg/mL. The purity of recovered protein was 73%. Reference: Wasilko, D. J. and S. E. Lee: “TIPS: titerless infected-cells preservation and scale-up” Bioprocess J., 5 (2006), pp. 29-32.
General Procedure for PRMT1 Enzyme Assays on Peptide Substrates.
The assays were all performed in a buffer consisting of 20 mM Bicine (pH=7.6), 1 mM TCEP, 0.005% BSG, and 0.002% Tween 20, prepared on the day of use. Compounds in 100% DMSO (1 ul) were spotted into a polypropylene 384-well V-bottom plates (Greiner) using a Platemate Plus outfitted with a 384-channel head (Thermo Scientific). DMSO (1 ul) was added to Columns 11, 12, 23, 24, rows A-H for the maximum signal control and 1 ul of SAH, a known product and inhibitor of PRMT1, was added to columns 11, 12, 23, 24, rows I-P for the minimum signal control. A cocktail (40 ul) containing the PRMT1 enzyme was added by Multidrop Combi (Thermo-Fisher). The compounds were allowed to incubate with PRMT1 for 30 min at room temperature, then a cocktail (10 ul) containing SAM and peptide was added to initiate the reaction (final volume=51 ul). The final concentrations of the components were as follows: PRMT1 was 0.5 nM, ^3H-SAM was 200 nM, non-radiolabeled SAM was 1.5 uM, peptide was 20 nM, SAH in the minimum signal control wells was 1 mM, and the DMSO concentration was 2%. The assays were stopped by the addition of non-radiolabeled SAM (10 ul) to a final concentration of 300 uM, which dilutes the ^3H-SAM to a level where its incorporation into the peptide substrate is no longer detectable. 50 ul of the reaction in the 384-well polypropylene plate was then transferred to a 384-well Flashplate and the biotinylated peptides were allowed to bind to the streptavidin surface for at least 1 hour before being washed once with 0.1% Tween20 in a Biotek ELx405 plate washer. The plates were then read in a PerkinElmer TopCount plate reader to measure the quantity of ^3H-labeled peptide bound to the Flashplate surface, measured as disintegrations per minute (dpm) or alternatively, referred to as counts per minute (cpm).
Where dpm=disintegrations per minute, cmpd=signal in assay well, and min and max are the respective minimum and maximum signal controls.
Where top and bottom are the normally allowed to float, but may be fixed at 100 or 0 respectively in a 3-parameter fit. The Hill Coefficient normally allowed to float but may also be fixed at 1 in a 3-parameter fit. Y is the % inhibition and X is the compound concentration.
`CNCCN(C)Cc1c[nH]nc1C#Cc1cccc(OC)c1` [Compound 1] gave an IC50 of less than 100 nM.
`CNCCN(C)Cc1c[nH]nc1C#Cc1ccc(C(C)(C)C)cc1` [Compound 2] showed an IC50 of less than 100 nM.
For `CNCCN(C)Cc1c[nH]nc1C#Cc1ccc(F)cc1` [Compound 4], the IC50 was less than 100 nM.
Work on `CNCCN(C)Cc1c[nH]nc1/C=C/c1ccc(-c2ccccc2)cc1` [Compound 5] yielded an IC50 of less than 100 nM.
Work on `CNCCN(C)Cc1c[nH]nc1/C=C/c1ccc(C(F)(F)F)cc1` [Compound 6] yielded an IC50 of less than 100 nM.
`CNCCN(C)Cc1c[nH]nc1/C=C/c1ccc(OC)cc1` [Compound 7] was tested, and the IC50 was less than 100 nM.
`Cc1ccc(/C=C/c2n[nH]cc2CN(C)CCN)cc1` [Compound 8] gave an IC50 of less than 100 nM.
With `CN(CCN)Cc1c[nH]nc1C1=CCOCC1` [Compound 10] the IC50 was 101 to 1000 nM.
With `COc1cc(/C=C/c2n[nH]cc2CN(C)CCN)cc(OC)c1` [Compound 11] the IC50 was less than 100 nM.
`CN(CCN)Cc1c[nH]nc1/C=C/c1ccc(F)cc1F` [Compound 13] showed an IC50 of less than 100 nM.
`CN(CCN)Cc1c[nH]nc1/C=C/c1cc(C(F)(F)F)cc(C(F)(F)F)c1` [Compound 14] gave an IC50 of less than 100 nM.
Compound `CN(CCN)Cc1c[nH]nc1/C=C/c1cc(F)cc(F)c1` [Compound 15] has an IC50 of less than 100 nM.
`CN(CCN)Cc1c[nH]nc1/C=C/c1cccc(C(F)(F)F)c1` [Compound 16] showed an IC50 of less than 100 nM.
In the case of `COc1cccc(/C=C/c2n[nH]cc2CN(C)CCN)c1` [Compound 17], the IC50 is reported as less than 100 nM.
Compound `CN(CCN)Cc1c[nH]nc1/C=C/c1ccc(C(F)(F)F)cc1` [Compound 18] has an IC50 of less than 100 nM.
For `COC/C=C/c1n[nH]cc1CN(C)CCN` [Compound 19], the IC50 was 101 to 1000 nM.
`CN(CCN)Cc1c[nH]nc1/C=C/c1cccc(F)c1` [Compound 20] gave an IC50 of less than 100 nM.
Compound `CC(C)c1n[nH]cc1CN(C)CCN` [Compound 21] has an IC50 of 1010 to 3000 nM.
`CN(CCN)Cc1c[nH]nc1C1CCCCC1` [Compound 22] was tested, and the IC50 was less than 100 nM.
Work on `CN(CCN)Cc1c[nH]nc1CCc1ccc(F)cc1` [Compound 23, N^1-((3-(4-fluorophenethyl)-1H-pyrazol-4-yl)methyl)-N^1-methylethane-1,2-diamine] yielded an IC50 of less than 100 nM.
In the case of `CN(CCN)Cc1c[nH]nc1/C=C/Cc1ccccc1` [Compound 24], the IC50 is reported as less than 100 nM.
In the case of `CN(CCN)Cc1c[nH]nc1C1=CCCC1` [Compound 25], the IC50 is reported as 101 to 1000 nM.
Compound `CC(C)Cc1n[nH]cc1CN(C)CCN` [Compound 28, N^1-((3-iso-butyl-1H-pyrazol-4-yl)methyl)-N^1-methylethane-1,2-diamine] has an IC50 of 101 to 1000 nM.
`CCCc1n[nH]cc1CN(C)CCN` [Compound 29] showed an IC50 of 101 to 1000 nM.
With `CNCCN(C)Cc1c[nH]nc1C1CCN(C(=O)Cc2ccccc2)CC1` [Compound 32] the IC50 was 101 to 1000 nM.
`CN(CCN)Cc1n[nH]cc1C1CCCCC1` [Compound 33] showed an IC50 of less than 100 nM.
For `CNCCN(C)Cc1c[nH]nc1C1CCN(C(=O)C(C)C)CC1` [Compound 34], the IC50 was less than 100 nM.
`CC1CCC(c2c[nH]nc2CN(C)CCN)CC1` (stereo not shown) [Compound 35] gave an IC50 of less than 100 nM.
With `CN(CCN)Cc1n[nH]cc1C1CCC(C)(C)CC1` [Compound 36] the IC50 was less than 100 nM.
`CC1CCC(c2n[nH]cc2CN(C)CCN)CC1` (stereo not shown) [Compound 37, N^1-methyl-N^1-((3-(4-methylcyclohexyl)-1H-pyrazol-4-yl)methyl)ethane-1,2-diamine] showed an IC50 of less than 100 nM.
`CN(CCN)Cc1c[nH]nc1C1CCC(C)(C)CC1` [Compound 38, N^1-((3-(4,4-dimethylcyclohexyl)-1H-pyrazol-4-yl)methyl)-N^1-methylethane-1,2-diamine] gave an IC50 of less than 100 nM.
With `CNCCN(C)Cc1c[nH]nc1C1CCN(C)CC1` [Compound 41] the IC50 was less than 100 nM.
In the case of `CNCCN(C)Cc1c[nH]nc1C1CCNCC1` [Compound 42], the IC50 is reported as less than 100 nM.
Compound `CN(CCN)Cc1n[nH]cc1C1CCC(N2CCOCC2)CC1` (stereo not shown) [Compound 44, N^1-methyl-N^1-((4-(4-morpholinocyclohexyl)-1H-pyrazol-3-yl)methyl)ethane-1,2-diamine] has an IC50 of 1010 to 3000 nM.
